From patent US8765720B2, “Combination therapy for the treatment of multiple myeloma” (Cephalon, Inc., priority 2009, dated 2014)

Tests used:
[1] = system: RPMI8226 cells; experiment: Apoptotic assay by annexin V and propidium iodide staining; assay type: cell-based, human; conditions: 2.5 nM for each drug, 30 hours
Procedure: To quantify apoptosis in response to drug treatment, RPMI8226 cells (5×10^5 cells per well) were incubated with vehicle or PIs at 37° C. and 5% CO2 for 30 hours. As a positive control, cells were incubated with 250 ng/mL of actinomycin D for 24 or 48 hours. Cells were then washed twice with phosphate-buffered saline, resuspended in binding buffer (100 mM HEPES/NaOH, pH 7.5 containing 1.4 M NaCl and 25 mM CaCl2), and stained with fluorescein isothiocyanate (FITC)-conjugated annexin V and with the fluorescent dye propidium iodide (PrI), according to the manufacturer's protocol (BioVision, Mountain View, Calif.). For each drug treatment, 1×10^5 gated events were recorded. Cells negative for both PI and annexin V staining were considered live; annexin V-positive, PrI-negative cells were considered early apoptotic; annexin V-positive, PrI-positive cells were considered late apoptotic. Flow cytometric analyses were performed using a Beckman Coulter FC500 cytometer with Cytomics CXP software (Beckman Coulter, Fullerton, Calif.).

[2] = system: RPMI8226 cells; experiment: Cell viability assay (MTS assay), RPMI8226 cells; assay type: cell-based, human; conditions: RPMI8226, 48 hours
Procedure: Combination indices (CIs) were calculated separately for each combination. […] CIs between 0.9 and 1.1 were considered to indicate additive drug effects (31).

[3] = system: apoptosis-inducing factor (AIF); experiment: Immunohistochemical analysis of AIF expression in LAGκ-1B tumors; assay type: in vivo, SCID mice; conditions: COMPOUND 1 1 mg/kg, bortezomib 0.5 mg/kg, alone or both; tumors excised post-treatment
Procedure: LAGκ-1B tumors were fixed in 4% paraformaldehyde and cut into 5 μm sections. Briefly, sections were blocked with Tris-buffered saline with 0.05% Tween-20 (TBST) and 3% BSA for 1 hour at room temperature and then incubated overnight with a rabbit antibody against AIF (Sigma, St. Louis, Mo.). The sections were washed three times with TBST and treated with horse radish […] anti-rabbit antibody (KPL, Gaithersburg, Md.) diluted 1:500 in TBST at room temperature for 2 hours. The slides were washed three times in TBST and placed in 3-amino-9-ethylcarbazole (AEC) buffer for 5 minutes, and color was detected using an AEC kit (Dako, Glostrup, Denmark). Staining was documented using an Olympus BX51 microscope (Olympus Imaging America Inc., Center Valley, Pa.) and analyzed by Microsuite Biological Suite program (Olympus BX51).

[4] = system: LAGλ-1; experiment: LAGλ-1 MM tumor model; assay type: in vivo; conditions: COMPOUND 1 monotherapy
[5] = system: LAGκ-1A tumor; experiment: Intramuscular LAGκ-1A tumor xenograft model (serum hIgG, tumor volume); conditions: for serum hIgG levels: 28 days of treatment; for serum hIgG levels and tumor volume vs vehicle: alone or together
Procedure: Six- to 8-week-old male severe combined immunodeficient (SCID) mice were obtained from the Jackson Laboratory (Bar Harbor, Me.) and maintained in a specific pathogen-free area in our animal resources facility. All animal studies were conducted according to protocols approved by the Institutional Animal Care and Use Committee. Animals were anesthetized with ketamine, xylazine, and isoflurane prior to surgery and were euthanized when tumors reached 2 cm in diameter.
Biopsy tissue was surgically implanted in the hind limbs of anesthetized SCID mice and passaged through succeeding generations (32).
Myeloma tumors (LAGκ-1A or LAGκ-1B) were excised from an anesthetized donor mouse, sectioned into 20 to 40 mm^3 pieces, and surgically implanted into the left superficial gluteal muscle of anesthetized naive SCID mice. Recipient mice received weekly injections of anti-asialo GM1 rabbit serum (Wako Bioproducts, Richmond, Va.) to further suppress immune activity. Mice were blindly assigned to one of the experimental groups, and treatment was initiated 7 to 21 days after tumor implantation. COMPOUND 1 was administered via oral gavage daily (0.5-5.0 mg/kg) or twice weekly (5-10 mg/kg). COMPOUND 1 was also administered twice weekly (W, F) via either IV injection (0.5-3.0 mg/kg) or oral gavage (10 mg/kg), as specified. Melphalan (1 mg/kg) was provided via weekly intraperitoneal (IP) injections (W). Bortezomib (0.5 mg/kg) was dispensed twice weekly (T, Th) via IV injection. Control treatment consisted of COMPOUND 1 diluent (3.2 mL 5% mannitol and 800 μL propylene glycol) alone.
Mice bearing MM tumors underwent weekly retro-orbital bleeds. Resulting samples were spun at 13,000 rpm for 30 minutes to isolate serum. The hIgG ELISA kit (Bethyl Laboratories, Montgomery, Tex.) was used according to the manufacturer's specifications. Absorbance at 450 nm with a reference wavelength of 550 nm was determined on a μQuant microplate spectrophotometer with KC Junior software (Bio-Tek Instruments, Winooski, Vt.). Data graphed are the mean±SEM with n=7-8 mice/group.
As a direct measurement of tumor growth, calipers were used to assess tumor volume weekly, and the formula for an ellipsoid volume was applied ( 4/3π×[width/2]^2×[length/2]).
Percent inhibition of tumor growth is represented as the tumor volume of the test drug group over the tumor volume of the untreated group (T/C). The optimal value is the minimal T/C ratio that reflects the maximal tumor growth inhibition achieved. The criterion for efficacy for the T/C ratio is ≦42%, according to National Cancer Institute (NCI) standard criteria (44).
Efficacy of drug therapy against tumors was standardized to the time (t) required for the untreated tumor to grow to a determined size based on the greatest difference in time to reach a tumor volume between the control and treatment group. This value can be represented as the growth delay (in days) between treated and control (tt−tc) (44).
Tumor growth and hIgG levels were analyzed in terms of treatment group means and standard error. Student's t-test was applied to determine the statistical significance of differences between treatment groups. Minimal significance level was P<0.05.

CC(C)C[C@H](NC(=O)[C@@H](NC(=O)c1cccc(-c2ccccc2)n1)[C@@H](C)O)B(O)O [COMPOUND 1, [(1R)-1-[[(2S,3R)-3-hydroxy-2-[6-phenyl-pyridine-2-carbonyl)amino]-1-oxobutyl]amino]-3-methylbutylboronic acid]
proportion of cells in early apoptosis (PrI−/Annexin V+) [1]: 10.4 % of cells
IC50 ([2]; Homo sapiens, RPMI-8226): 8.5 nM
cytotoxicity at 0.009 µM ([2]; Homo sapiens, RPMI-8226, single-agent COMPOUND 1 9.0 nM, read-out: decrease in cell viability): 64%
inhibition of viability ([2]; COMPOUND 1 0.1-10 nM): concentration-dependent inhibition of viability
AIF expression vs vehicle-treated tumors [3]: elevated AIF expression
Ig levels and tumor volumes [4]: statistically significant reduction
serum hIgG levels ([5]; 1 mg/kg and 3 mg/kg IV twice weekly, P=0.0001 / P=0.0002 vs control): essentially undetectable
serum hIgG levels and tumor volume vs vehicle ([5]; COMPOUND 1 1 mg/kg IV, bortezomib 0.5 mg/kg IV, twice weekly): only partially inhibited
reduction in the volume of tumors vs control ([5]; IV 1 or 3 mg/kg twice weekly, after 4 weeks, P=0.0001): approximately 15 fold
serum hIgG levels and tumor volume vs vehicle ([5]; melphalan 1 mg/kg IP weekly, COMPOUND 1 1 mg/kg IV twice weekly, 3 weeks): nonsignificant decrease
delay of tumor volume growth to 87.5 mm^3 ([5]; mouse, in vivo, po, 5 mg/kg): 53 days
tumor inhibition (hIgG, tumor volume) ([5]; mouse, in vivo, po, 5 mg/kg): significant tumor inhibition
mice died of drug-related toxicity ([5]; oral 5 mg/kg daily): Two of fifteen
delay of tumor volume growth to 87.5 mm^3 ([5]; oral 5 mg/kg daily, vs untreated control): 530%
mice surviving five weeks of dosing and three week follow-up ([5]; oral 10 mg/kg twice weekly): 15/15
Percentage T/C ([5]; oral 10 mg/kg twice weekly, day 21): 29.3%
Percentage T/C ([5]; oral 10 mg/kg twice weekly, day 28): 17.3%
delay of tumor volume growth to 700 mm^3 ([5]; oral 10 mg/kg twice weekly, day 32.5 control vs day 63): 30.5 days
Percentage T/C ([5]; oral 10 mg/kg twice weekly, day 35): 6.1%
Percentage T/C ([5]; oral 10 mg/kg twice weekly, day 42): 6.1%
Percentage T/C ([5]; oral 10 mg/kg twice weekly, day 49): 10.6%
human paraprotein secretion and tumor volume ([5]; oral 10 mg/kg twice weekly, three weeks (day 28), hIgG P=0.0011, tumor volume P=0.001): significant inhibition of both human paraprotein secretion and reduction of tumor volume
delay of tumor volume growth to 700 mm^3 ([5]; oral 10 mg/kg twice weekly, vs no treatment): 93.8%
tumor volume vs control-treated tumors ([5]; oral (10 mg/kg twice weekly), 14 days of treatment, P=0.0002): marked reduction in tumor volume
serum hIgG levels ([5]; oral (10 mg/kg twice weekly), P=0.0001): negligible
serum hIgG levels vs control-treated animals ([5]; oral (10 mg/kg twice weekly), within 2 weeks of treatment, P=0.0007): significantly lower
anti-myeloma activity (human IgG levels and tumor volumes) ([5]; oral, daily, 3 mg/kg): moderate anti-myeloma activity
paraprotein secretion from tumors ([5]; single-agent IV twice weekly, escalating doses): dose-dependent decrease in paraprotein secretion
